Test [1] deals with T1, Acyl-CoA dehydrogenase family member 10 (Homo sapiens, UniProt Q6JQN1).
T1 sequence (Q6JQN1 whole entry): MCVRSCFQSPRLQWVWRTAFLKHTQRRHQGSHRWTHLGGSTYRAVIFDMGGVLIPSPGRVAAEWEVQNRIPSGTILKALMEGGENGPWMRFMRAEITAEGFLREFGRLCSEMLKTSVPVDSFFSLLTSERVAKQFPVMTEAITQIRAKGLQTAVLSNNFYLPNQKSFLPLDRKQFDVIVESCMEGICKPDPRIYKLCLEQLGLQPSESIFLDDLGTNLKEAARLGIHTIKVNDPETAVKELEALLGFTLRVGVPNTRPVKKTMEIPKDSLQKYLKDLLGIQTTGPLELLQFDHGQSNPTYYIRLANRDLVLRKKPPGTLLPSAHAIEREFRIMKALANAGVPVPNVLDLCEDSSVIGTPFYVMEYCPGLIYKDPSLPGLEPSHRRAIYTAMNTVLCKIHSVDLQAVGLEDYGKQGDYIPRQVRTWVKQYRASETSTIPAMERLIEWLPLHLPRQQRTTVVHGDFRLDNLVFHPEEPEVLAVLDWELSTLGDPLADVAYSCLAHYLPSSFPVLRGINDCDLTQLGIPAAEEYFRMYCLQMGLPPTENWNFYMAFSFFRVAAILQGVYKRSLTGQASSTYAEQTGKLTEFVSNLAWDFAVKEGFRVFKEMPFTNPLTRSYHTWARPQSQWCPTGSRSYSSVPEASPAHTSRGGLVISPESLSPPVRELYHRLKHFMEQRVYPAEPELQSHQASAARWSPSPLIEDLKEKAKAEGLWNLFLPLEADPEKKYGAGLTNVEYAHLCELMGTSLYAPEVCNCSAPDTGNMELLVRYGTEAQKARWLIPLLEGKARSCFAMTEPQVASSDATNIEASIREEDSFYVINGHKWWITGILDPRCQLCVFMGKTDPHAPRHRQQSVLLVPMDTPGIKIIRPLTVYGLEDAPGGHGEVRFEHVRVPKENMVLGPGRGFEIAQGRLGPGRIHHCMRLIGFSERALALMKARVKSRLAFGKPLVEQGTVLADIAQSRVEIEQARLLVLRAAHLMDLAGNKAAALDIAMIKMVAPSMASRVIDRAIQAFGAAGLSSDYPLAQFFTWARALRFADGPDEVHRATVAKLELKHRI

The target in test [2] is Calcium/calmodulin-dependent protein kinase kinase 2 (Homo sapiens, UniProt Q96RR4).
Sequence of Calcium/calmodulin-dependent protein kinase kinase 2 (Q96RR4 whole entry): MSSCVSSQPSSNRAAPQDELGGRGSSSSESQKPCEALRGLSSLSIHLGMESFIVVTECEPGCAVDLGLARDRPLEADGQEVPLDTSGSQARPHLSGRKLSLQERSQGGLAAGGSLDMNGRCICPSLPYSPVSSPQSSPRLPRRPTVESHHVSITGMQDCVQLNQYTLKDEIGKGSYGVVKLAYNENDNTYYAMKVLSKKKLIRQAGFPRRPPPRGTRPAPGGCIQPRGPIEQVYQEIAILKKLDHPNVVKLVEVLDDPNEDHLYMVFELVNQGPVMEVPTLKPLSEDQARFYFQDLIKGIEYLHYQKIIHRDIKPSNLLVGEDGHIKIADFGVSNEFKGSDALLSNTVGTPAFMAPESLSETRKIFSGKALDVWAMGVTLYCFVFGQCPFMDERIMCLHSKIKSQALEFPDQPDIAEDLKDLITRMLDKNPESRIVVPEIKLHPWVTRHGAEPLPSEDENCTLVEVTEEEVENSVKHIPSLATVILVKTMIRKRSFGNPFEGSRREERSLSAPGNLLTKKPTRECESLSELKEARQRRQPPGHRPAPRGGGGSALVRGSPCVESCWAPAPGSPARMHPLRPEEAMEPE
The target in test [3] is Cyclin-dependent kinase 7 (Homo sapiens, UniProt P50613).
Sequence of Cyclin-dependent kinase 7 (P50613 whole entry): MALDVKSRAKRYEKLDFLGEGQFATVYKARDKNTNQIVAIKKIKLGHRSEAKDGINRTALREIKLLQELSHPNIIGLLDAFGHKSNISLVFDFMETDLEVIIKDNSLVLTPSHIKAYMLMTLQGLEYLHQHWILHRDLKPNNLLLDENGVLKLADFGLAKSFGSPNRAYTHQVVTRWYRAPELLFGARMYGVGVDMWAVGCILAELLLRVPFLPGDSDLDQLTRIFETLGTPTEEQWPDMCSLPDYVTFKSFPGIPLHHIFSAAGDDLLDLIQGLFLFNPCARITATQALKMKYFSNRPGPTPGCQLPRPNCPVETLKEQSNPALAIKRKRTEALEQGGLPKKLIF
The target of test [4] is Dual specificity tyrosine-phosphorylation-regulated kinase 1A (Homo sapiens, UniProt Q13627).
The target of test [5] is T2, Ferrochelatase, mitochondrial (Homo sapiens, UniProt P22830).
T2 sequence (P22830 whole entry): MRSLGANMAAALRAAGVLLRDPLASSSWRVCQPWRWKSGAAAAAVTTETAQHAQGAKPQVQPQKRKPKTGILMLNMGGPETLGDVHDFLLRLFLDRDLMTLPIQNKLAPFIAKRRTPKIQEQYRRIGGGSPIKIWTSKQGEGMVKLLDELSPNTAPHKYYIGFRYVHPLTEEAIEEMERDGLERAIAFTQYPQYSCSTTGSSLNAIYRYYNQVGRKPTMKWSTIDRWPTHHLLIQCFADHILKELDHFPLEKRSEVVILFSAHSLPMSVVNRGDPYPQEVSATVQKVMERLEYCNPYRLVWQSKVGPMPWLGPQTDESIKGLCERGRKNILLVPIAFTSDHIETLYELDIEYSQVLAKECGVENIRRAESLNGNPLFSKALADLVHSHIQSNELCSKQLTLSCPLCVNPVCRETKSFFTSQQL

In test [6] the target is T3, Interleukin-1 receptor-associated kinase 3 (Homo sapiens, UniProt Q9Y616).
T3 sequence (Q9Y616 whole entry): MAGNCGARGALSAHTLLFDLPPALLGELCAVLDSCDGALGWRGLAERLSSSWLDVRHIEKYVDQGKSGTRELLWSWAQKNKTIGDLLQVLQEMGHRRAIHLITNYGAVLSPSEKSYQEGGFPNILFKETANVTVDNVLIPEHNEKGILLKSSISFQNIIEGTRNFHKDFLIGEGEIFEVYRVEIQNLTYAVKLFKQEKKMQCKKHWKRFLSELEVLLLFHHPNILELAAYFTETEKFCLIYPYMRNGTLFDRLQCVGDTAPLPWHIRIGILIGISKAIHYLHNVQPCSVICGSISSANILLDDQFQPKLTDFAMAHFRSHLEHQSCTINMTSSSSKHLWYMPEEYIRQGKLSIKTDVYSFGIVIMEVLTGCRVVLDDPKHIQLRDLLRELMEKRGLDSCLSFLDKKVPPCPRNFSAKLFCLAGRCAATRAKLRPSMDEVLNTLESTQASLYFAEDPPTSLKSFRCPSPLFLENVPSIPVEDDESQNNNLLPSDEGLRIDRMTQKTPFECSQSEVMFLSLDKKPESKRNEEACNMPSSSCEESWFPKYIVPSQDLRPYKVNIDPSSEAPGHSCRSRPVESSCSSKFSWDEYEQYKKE

Test [7] deals with T4, Dual specificity mitogen-activated protein kinase kinase 5 (Homo sapiens, UniProt Q13163).
T4 sequence (Q13163 whole entry): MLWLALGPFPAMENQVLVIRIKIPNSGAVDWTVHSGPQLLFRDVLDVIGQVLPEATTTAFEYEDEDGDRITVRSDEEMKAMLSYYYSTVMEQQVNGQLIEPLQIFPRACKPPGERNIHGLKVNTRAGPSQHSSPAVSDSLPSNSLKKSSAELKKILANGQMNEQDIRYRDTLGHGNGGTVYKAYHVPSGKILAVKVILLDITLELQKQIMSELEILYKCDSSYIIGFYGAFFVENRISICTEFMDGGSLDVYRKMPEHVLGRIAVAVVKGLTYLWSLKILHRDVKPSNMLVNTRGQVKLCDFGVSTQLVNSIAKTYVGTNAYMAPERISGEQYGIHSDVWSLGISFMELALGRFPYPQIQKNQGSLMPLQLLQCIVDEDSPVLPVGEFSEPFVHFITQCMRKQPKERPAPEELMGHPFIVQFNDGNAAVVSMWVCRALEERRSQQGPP

In test [8] the target is S-adenosylmethionine synthase isoform type-2 (Homo sapiens, UniProt P31153).
Sequence of S-adenosylmethionine synthase isoform type-2 (P31153 whole entry, canonical isoform): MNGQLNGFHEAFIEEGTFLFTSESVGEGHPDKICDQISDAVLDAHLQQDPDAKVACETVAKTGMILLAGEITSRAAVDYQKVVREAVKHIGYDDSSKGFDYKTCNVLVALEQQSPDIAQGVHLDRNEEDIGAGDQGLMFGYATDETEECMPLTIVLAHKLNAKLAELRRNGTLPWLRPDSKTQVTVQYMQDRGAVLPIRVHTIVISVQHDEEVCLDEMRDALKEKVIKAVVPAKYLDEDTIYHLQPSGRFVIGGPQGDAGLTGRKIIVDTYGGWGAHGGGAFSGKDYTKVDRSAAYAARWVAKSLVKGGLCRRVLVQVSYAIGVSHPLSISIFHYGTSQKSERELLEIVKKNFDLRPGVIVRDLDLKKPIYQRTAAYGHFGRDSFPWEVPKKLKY
Test [9] concerns the target cAMP-dependent protein kinase catalytic subunit gamma (Homo sapiens, UniProt P22612).
The target in test [10] is Structural maintenance of chromosomes protein 2 (Homo sapiens, UniProt O95347).
Sequence of Structural maintenance of chromosomes protein 2 (O95347 whole entry): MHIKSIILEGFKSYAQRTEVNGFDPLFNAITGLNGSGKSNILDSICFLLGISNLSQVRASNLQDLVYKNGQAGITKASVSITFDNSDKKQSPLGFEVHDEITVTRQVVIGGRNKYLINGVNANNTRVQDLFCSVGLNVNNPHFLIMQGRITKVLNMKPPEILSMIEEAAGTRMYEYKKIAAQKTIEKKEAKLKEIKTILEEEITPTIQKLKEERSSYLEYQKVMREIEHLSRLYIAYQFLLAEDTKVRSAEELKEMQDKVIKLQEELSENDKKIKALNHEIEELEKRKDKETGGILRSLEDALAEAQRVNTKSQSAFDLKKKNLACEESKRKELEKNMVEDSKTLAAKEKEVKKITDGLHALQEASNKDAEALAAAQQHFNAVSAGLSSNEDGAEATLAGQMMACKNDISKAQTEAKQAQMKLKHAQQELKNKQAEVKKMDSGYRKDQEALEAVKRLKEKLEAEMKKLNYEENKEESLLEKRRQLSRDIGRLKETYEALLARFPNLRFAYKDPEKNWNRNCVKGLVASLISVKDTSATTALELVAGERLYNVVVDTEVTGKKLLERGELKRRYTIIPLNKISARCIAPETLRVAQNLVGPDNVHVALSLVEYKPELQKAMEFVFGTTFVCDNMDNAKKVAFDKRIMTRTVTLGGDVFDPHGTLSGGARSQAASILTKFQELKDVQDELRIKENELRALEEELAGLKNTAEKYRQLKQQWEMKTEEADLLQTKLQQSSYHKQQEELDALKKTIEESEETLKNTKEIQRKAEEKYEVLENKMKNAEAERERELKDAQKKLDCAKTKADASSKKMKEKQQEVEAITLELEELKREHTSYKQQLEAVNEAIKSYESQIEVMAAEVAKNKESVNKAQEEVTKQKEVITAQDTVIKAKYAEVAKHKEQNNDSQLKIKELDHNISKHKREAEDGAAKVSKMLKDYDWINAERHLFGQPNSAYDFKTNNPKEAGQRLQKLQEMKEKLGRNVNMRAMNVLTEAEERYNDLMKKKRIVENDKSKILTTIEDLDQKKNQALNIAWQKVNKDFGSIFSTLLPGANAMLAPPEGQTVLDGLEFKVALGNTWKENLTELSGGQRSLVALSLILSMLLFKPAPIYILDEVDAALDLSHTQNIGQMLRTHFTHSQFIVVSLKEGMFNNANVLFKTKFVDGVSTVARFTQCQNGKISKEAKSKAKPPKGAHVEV

Active and inactive are the calls of the source. Cut-off read from the data, not from the text of the source, for most assays here: actives have a measured Kd and inactives only a lower limit. Bounds are passed on as bounds.
Note: in the data inactive means no Kd found up to 30 µM.

Sequence of cAMP-dependent protein kinase catalytic subunit gamma (P22612 whole entry): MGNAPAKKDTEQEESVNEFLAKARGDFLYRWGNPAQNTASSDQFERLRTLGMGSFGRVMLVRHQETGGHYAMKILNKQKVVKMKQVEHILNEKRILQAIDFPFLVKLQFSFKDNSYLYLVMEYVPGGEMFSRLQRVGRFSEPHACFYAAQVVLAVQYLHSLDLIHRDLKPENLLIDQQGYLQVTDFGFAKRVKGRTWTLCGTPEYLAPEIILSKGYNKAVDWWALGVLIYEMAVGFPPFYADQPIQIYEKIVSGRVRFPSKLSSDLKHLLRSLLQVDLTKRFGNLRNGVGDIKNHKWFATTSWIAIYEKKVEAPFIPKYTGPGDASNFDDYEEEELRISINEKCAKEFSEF

For orientation: Kd means the free concentration of one partner at which half of the binding sites on the other are occupied at equilibrium, for simple one-to-one binding. Take `COc1cc2nccc(Oc3ccc(NC(=O)NC4CC4)c(Cl)c3)c2cc1C(N)=O` [LENVATINIB]: the Kd in test [1] was > 30 µM (inactive); in [2], > 30 µM (inactive); in test [3], > 30 µM (inactive); in test [4] it was > 30 µM (inactive); in test [5] it was 2.81 µM (active); in test [6], > 30 µM (inactive). Further, the Kd in [7] was 2.91 µM (active); in [8], > 30 µM (inactive); in test [9], > 30 µM (inactive); in test [10] it was > 30 µM (inactive).
Turning to `Cc1ccc(NC(=O)c2ccc(CN3CC[C@H](N(C)C)C3)c(C(F)(F)F)c2)cc1Nc1nccc(-c2cncnc2)n1` [BAFETINIB], the Kd in [1], in [2], in [3], in test [4], in test [5] and in test [6] was > 30 µM (inactive) each time. The results for the equilibrium dissociation constant (Kd) in test [7], in test [9] and in test [10] were 11.4 µM (active), > 30 µM (inactive) and > 30 µM (inactive), respectively.
With `O=C1NC(=O)/C(=C/c2ccc3nccc(-c4ccncc4)c3c2)S1` [GSK-1059615], the Kd in test [2] is > 30 µM (inactive); in test [3], > 30 µM (inactive); in test [4], 0.314 µM (active); in test [5], > 30 µM (inactive); in test [6] it was 8.67 µM (active); in test [7], > 30 µM (inactive). The Kd in test [8], in [9] and in [10] was > 30 µM (inactive) in each case.
With `Cc1cn(-c2cc(NC(=O)c3ccc(C)c(Nc4nccc(-c5cccnc5)n4)c3)cc(C(F)(F)F)c2)cn1` [NILOTINIB], the Kd in test [1], in [8], in [9] and in [10] was > 30 µM (inactive) throughout.
In the case of `Cn1cc(-c2ccc3nnc(C(F)(F)c4ccc5ncccc5c4)n3n2)cn1` [JNJ-38877605], the Kd in [1], in test [2], in test [3], in [4], in [5] and in test [6] was > 30 µM (inactive) throughout. Also, the Kd in test [7], in test [9] and in [10] was > 30 µM (inactive) in each case.
In the case of `Cc1c(F)cc(C(=O)NC2CC2)cc1-c1ccc(C(=O)NCC(C)(C)C)cn1` [LOSMAPIMOD], the Kd in test [1], in test [2], in test [3], in test [4], in test [5] and in [6] was > 30 µM (inactive) throughout. Moreover, the Kd in test [7] was > 30 µM (inactive); in test [9], 49.3 µM (active); in test [10] it was > 30 µM (inactive).
As to `Cc1cc(Nc2cc(N3CCN(C)CC3)nc(/C=C/c3ccccc3)n2)n[nH]1` [ENMD-2076], the Kd in [1], in [2], in [5], in [6], in [7] and in test [8] was > 30 µM (inactive) in each case. Moreover, the Kd in test [9] and in test [10] was > 30 µM (inactive) in each case.
Turning to `COc1cc(N2CCC(N3CCN(C)CC3)CC2)ccc1Nc1ncnc(Nc2ccccc2S(=O)(=O)C(C)C)n1` [ASP-3026], the Kd in test [2] was 9.13 µM (active); in test [3], > 30 µM (inactive); in test [4], > 30 µM (inactive); in test [5], > 30 µM (inactive); in test [6], > 30 µM (inactive); in test [7] it was > 30 µM (inactive). The Kd in [8], in test [9] and in [10] was > 30 µM (inactive) each time.
On to `CCn1c(-c2nonc2N)nc2c(C#CC(C)(C)O)ncc(OC[C@H]3CCCNC3)c21` [GSK-690693], for which the Kd is > 30 µM (inactive) in test [1]; 2.7 µM (active) in [5]; > 30 µM (inactive) in [8]; > 30 µM (inactive) in test [9]; 1.11 µM (active) in [10].
For `CCc1cnn2c(NCc3ccc[n+]([O-])c3)cc(N3CCCC[C@H]3CCO)nc12` [DINACICLIB], the Kd in test [1], in test [2], in test [5], in [6], in test [7] and in test [8] was > 30 µM (inactive) throughout. For the same compound, the Kd in [9] and in [10] was > 30 µM (inactive) throughout.
Take `Cn1cc(-c2ccc(F)c(C(F)(F)F)c2)nc1C1CCN(c2ncnc3[nH]ncc23)CC1` [LY-2584702]: the Kd in test [1], in test [2], in [3], in test [4], in [5] and in test [6] was > 30 µM (inactive) in each case. Further, the Kd in test [7], in [9] and in test [10] was > 30 µM (inactive) each time.
With `CCN1CCN(Cc2ccc(-c3cc4c(N[C@H](C)c5ccccc5)ncnc4[nH]3)cc2)CC1` [AEE-788], the Kd in [2] is > 30 µM (inactive); in test [3], > 30 µM (inactive); in test [4], > 30 µM (inactive); in [5], > 30 µM (inactive); in test [6], > 30 µM (inactive); in [7], 9.43 µM (active). Besides, the Kd in [8], in test [9] and in [10] was > 30 µM (inactive) in each case.

The record behind these values is ChEMBL document CHEMBL3991601, “The target landscape of clinical kinase drugs” (Science, 2017).
